Laboratory results as given in paper PMC3665348 (Biochemical pharmacology, 2012).

Target: T1, CYP1A1 (Homo sapiens, UniProt P04798)
T1 sequence (P04798 1-512): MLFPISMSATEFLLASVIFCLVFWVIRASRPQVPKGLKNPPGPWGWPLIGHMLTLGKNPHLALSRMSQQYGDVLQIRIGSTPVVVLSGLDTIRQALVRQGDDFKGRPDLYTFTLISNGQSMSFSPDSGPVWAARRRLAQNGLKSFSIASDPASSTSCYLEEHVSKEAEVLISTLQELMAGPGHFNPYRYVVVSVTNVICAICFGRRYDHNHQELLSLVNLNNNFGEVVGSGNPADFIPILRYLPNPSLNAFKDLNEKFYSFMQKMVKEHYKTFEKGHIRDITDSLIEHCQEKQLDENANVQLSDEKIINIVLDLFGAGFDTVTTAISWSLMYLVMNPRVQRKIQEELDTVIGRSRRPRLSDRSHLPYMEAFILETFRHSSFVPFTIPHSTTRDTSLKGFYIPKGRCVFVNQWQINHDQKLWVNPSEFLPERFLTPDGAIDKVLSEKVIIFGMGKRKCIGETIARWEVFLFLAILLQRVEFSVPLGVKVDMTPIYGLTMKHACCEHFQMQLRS
Assay: procainamide hydroxylamine
Assay type: biochemical
Conditions: 20 μM procainamide, NADPH 2 mM, MgCl2 2 mM, 20 mM PBS pH 7.4, 37°C, 30 min

## CCN(CC)CCNC(=O)c1ccc(N)cc1 [I, Procainamide]
  procainamide hydroxylamine (VI) formation, UPLC-ESI-QTOFMS: CYP1A1 also had some activity.
